Source: BindingDB's records for doi:10.1021/jm960581w (Sphinx Laboratories, 1996)

Molecular target: cAMP-dependent protein kinase catalytic subunit alpha (Bos taurus, UniProt P00517)
Experiment: PKA assay
Procedure: The activity of PKA, activated by cAMP, is measured by its ability to transfer phosphate from [gamma-32P]ATP to histone.

Row | SMILES | IC50 [µM]
1 | O=C(OCC(COc1ccc(O)cc1)NS(=O)(=O)c1ccccc1)c1cc(O)c(C(=O)c2c(O)cccc2C(=O)O)c(O)c1 (racemic) [2-[(4-{[2-benzenesulfonamido-3-(4-hydroxyphenoxy)propoxy]carbonyl}-2,6-dihydroxyphenyl)carbonyl]-3-hydroxybenzoic acid] | > 50
2 | O=C(O[C@@H]1CCC[C@@H]1Cc1ccc(O)cc1)c1cc(O)c(C(=O)c2c(O)cccc2C(=O)O)c(O)c1 [2-{[2,6-dihydroxy-4-({[(1R,2R)-2-[(4-hydroxyphenyl)methyl]cyclopentyl]oxy}carbonyl)phenyl]carbonyl}-3-hydroxybenzoic acid] | > 50
3 | O=C(OCCCCc1ccc(O)cc1)c1cc(O)c(C(=O)c2c(O)cccc2C(=O)O)c(O)c1 [2-[(2,6-dihydroxy-4-{[4-(4-hydroxyphenyl)butoxy]carbonyl}phenyl)carbonyl]-3-hydroxybenzoic acid] | > 50
4 | O=C(NC(COC(=O)c1cc(O)c(C(=O)c2c(O)cccc2C(=O)O)c(O)c1)Cc1ccc(O)cc1)c1ccccc1 (racemic) [2-[(2,6-dihydroxy-4-{[3-(4-hydroxyphenyl)-2-(phenylformamido)propoxy]carbonyl}phenyl)carbonyl]-3-hydroxybenzoic acid] | > 50
5 | O=C(OCCCc1ccc(O)cc1)c1cc(O)c(C(=O)c2c(O)cccc2C(=O)O)c(O)c1 [2-[[2,6-Dihydroxy-4-[[[3-(4-hydroxyphenyl)propyl]oxy]carbonyl]phenyl]carbonyl]-3-hydroxybenzoic Acid] | > 50
6 | O=C(OC[C@H](Cc1ccc(O)cc1)NS(=O)(=O)c1ccccc1)c1cc(O)c(C(=O)c2c(O)cccc2C(=O)O)c(O)c1 [2-[(4-{[(2S)-2-benzenesulfonamido-3-(4-hydroxyphenyl)propoxy]carbonyl}-2,6-dihydroxyphenyl)carbonyl]-3-hydroxybenzoic acid] | > 50
7 | CN(C)C(COC(=O)c1cc(O)c(C(=O)c2c(O)cccc2C(=O)O)c(O)c1)Cc1ccc(O)cc1 (racemic) [2-[(4-{[2-(dimethylamino)-3-(4-hydroxyphenyl)propoxy]carbonyl}-2,6-dihydroxyphenyl)carbonyl]-3-hydroxybenzoic acid] | > 50
8 | O=C(O[C@@H]1CCC[C@H]1Oc1ccc(O)cc1)c1cc(O)c(C(=O)c2c(O)cccc2C(=O)O)c(O)c1 (racemic) [2-{[2,6-dihydroxy-4-({[(1R,2R)-2-(4-hydroxyphenoxy)cyclopentyl]oxy}carbonyl)phenyl]carbonyl}-3-hydroxybenzoic acid] | > 50
9 | O=C(OC[C@@H](Cc1ccc(O)cc1)NS(=O)(=O)c1ccccc1)c1cc(O)c(C(=O)c2c(O)cccc2C(=O)O)c(O)c1 [2-[(4-{[(2R)-2-benzenesulfonamido-3-(4-hydroxyphenyl)propoxy]carbonyl}-2,6-dihydroxyphenyl)carbonyl]-3-hydroxybenzoic acid] | > 50
10 | O=C(OCC(NS(=O)(=O)c1ccccc1)c1ccc(O)cc1)c1cc(O)c(C(=O)c2c(O)cccc2C(=O)O)c(O)c1 (racemic) [2-[(4-{[2-benzenesulfonamido-2-(4-hydroxyphenyl)ethoxy]carbonyl}-2,6-dihydroxyphenyl)carbonyl]-3-hydroxybenzoic acid] | > 50

Now from value to molecule:

Row | IC50 [µM] | SMILES
11 | > 50 | COC(=O)c1cccc(O)c1C(=O)c1c(O)cc(C(=O)O[C@@H]2CCC[C@H]2Cc2ccc(O)cc2)cc1O [(1R,2S)-2-[(4-hydroxyphenyl)methyl]cyclopentyl 3,5-dihydroxy-4-{[2-hydroxy-6-(methoxycarbonyl)phenyl]carbonyl}benzoate]
12 | > 150 | Cc1ccc(S(=O)(=O)N2CCC[C@@H](OC(=O)c3cc(O)c(C(=O)c4c(O)cccc4C(=O)O)c(O)c3)[C@H](NC(=O)c3ccc(O)cc3)C2)cc1 [2-{[2,6-dihydroxy-4-({[(3R,4R)-3-[(4-hydroxybenzene)amido]-1-[(4-methylbenzene)sulfonyl]azepan-4-yl]oxy}carbonyl)phenyl]carbonyl}-3-hydroxybenzoic acid]
13 | > 50 | O=C(OCC(Cc1ccc(O)cc1)NS(=O)(=O)c1ccccc1)c1cc(O)c(C(=O)c2c(O)cccc2C(=O)O)c(O)c1 (racemic) [(+-)-2-[[2,6-Dihydroxy-4-[[[3-(4-hydroxyphenyl)-2-[(phenylsulfonyl)amino]propyl]oxy]carbonyl]phenyl]carbonyl]-3-hydroxybenzoic Acid]
14 | > 50 | O=C(NC(COC(=O)c1cc(O)c(C(=O)c2c(O)cccc2C(=O)O)c(O)c1)Cc1ccc(O)cc1)c1ccc(O)cc1 (stereo not drawn) [(+-)-2-[[2,6-Dihydroxy-4-[[[3-(4-hydroxyphenyl)-2-[[(4-hydroxyphenyl)carbonyl]amino]propyl]oxy]carbonyl]phenyl]carbonyl]-3-hydroxybenzoic Acid]
15 | > 50 | O=C(OCC(Cc1ccc(O)cc1)NS(=O)(=O)c1ccc2ccccc2c1)c1cc(O)c(C(=O)c2c(O)cccc2C(=O)O)c(O)c1 (stereo not drawn) [(+-)-2-[[2,6-Dihydroxy-4-[[[3-(4-hydroxyphenyl)-2-[(naphthylsulfonyl)amino]propyl]oxy]carbonyl]phenyl]carbonyl]-3-hydroxybenzoic Acid]
16 | > 50 | CC(CCc1ccc(O)cc1)OC(=O)c1cc(O)c(C(=O)c2c(O)cccc2C(=O)O)c(O)c1 (stereo not drawn) [(+-)-2-[[2,6-Dihydroxy-4-[[[3-(4-hydroxyphenyl)-1-methylpropyl]oxy]carbonyl]phenyl]carbonyl]-3-hydroxybenzoic Acid]
17 | > 50 | O=C(O[C@@H]1CCC[C@H]1Cc1ccc(O)cc1)c1cc(O)c(C(=O)c2c(O)cccc2C(=O)O)c(O)c1 (racemic) [2-{[2,6-dihydroxy-4-({[(1R,2S)-2-[(4-hydroxyphenyl)methyl]cyclopentyl]oxy}carbonyl)phenyl]carbonyl}-3-hydroxybenzoic acid]
18 | > 50 | COC(=O)c1cccc(O)c1C(=O)c1c(O)cc(C(=O)OC[C@H](Cc2ccc(O)cc2)NS(=O)(=O)c2ccccc2)cc1O [(S)-Methyl 2-[[2,6-Dihydroxy-4-[[[3-(4-hydroxyphenyl)-2-[(phenylsulfonyl)amino]propyl]oxy]carbonyl]phenyl]carbonyl]-3-hydroxybenzoate]
19 | > 50 | CS(=O)(=O)NC(COC(=O)c1cc(O)c(C(=O)c2c(O)cccc2C(=O)O)c(O)c1)Cc1ccc(O)cc1 (racemic) [(+-)-2-[[2,6-Dihydroxy-4-[[[3-(4-hydroxyphenyl)-2-[(methylsulfonyl)amino]propyl]oxy]carbonyl]phenyl]carbonyl]-3-hydroxybenzoic Acid]
